In patent publication US4447608A, “Anti-cancer quinazoline derivatives” (priority 1979, dated 1984):
Like-named read-outs stand apart in the source and are kept apart here.

Key:
L1210 cells [1] = experiment: Growth inhibition of L1210 cells in suspension culture, 48 h count; assay type: cell-based; settings: Mus musculus
Description: (§1) Cells were diluted to 10^5 /ml and additions (diluted in medium and sterilised in Millipore filtration) made prior to starting each incubation. Cell counts were performed after 24 and 48 hours using an improved Neubauer haemocytometer.

[2] = target: DIHYDROFOLATE REDUCTASE (DHFR); experiment: Inhibition of dihydrofolate reductase (DHFR) purified by affinity chromatography; assay type: biochemical; settings: Table 1
From the text: (§2) The cytosol of log phase L1210 cells harvested from animals was partially purified for TS I50 and Ki determinations to remove from the preparation a phosphatase which degrades dUMP to deoxyuridine. (The I50 was defined as the inhibitor concentration necessary to reduce the reaction rate of TS by 50%). DHFR was purified by affinity chromatography and Ki determinations performed.

[3] = target: T1, THYMIDYLATE SYNTHETASE (TS) (Mus musculus, UniProt P07607); experiment: Inhibition of thymidylate synthetase (TS), partially purified L1210 cytosol; assay type: biochemical; settings: Table 1, inhibitor concentration reducing TS reaction rate by 50%, read-out: THYMIDYLATE SYNTHETASE I50
T1 construct: The cytosol of log phase L1210 cells harvested from animals was partially purified for TS I50 and Ki determinations; endogenous in cells; host or cells: L1210 cells harvested from animals (cytosol, partially purified)
T1 sequence (P07607 whole entry): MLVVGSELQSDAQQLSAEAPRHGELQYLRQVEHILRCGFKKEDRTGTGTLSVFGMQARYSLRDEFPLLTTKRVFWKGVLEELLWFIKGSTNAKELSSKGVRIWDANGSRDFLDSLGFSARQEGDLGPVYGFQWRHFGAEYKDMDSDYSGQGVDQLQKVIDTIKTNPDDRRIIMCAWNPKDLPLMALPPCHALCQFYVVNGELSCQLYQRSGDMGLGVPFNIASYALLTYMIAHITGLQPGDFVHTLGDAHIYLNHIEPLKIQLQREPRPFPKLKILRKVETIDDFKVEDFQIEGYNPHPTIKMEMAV
From the text: as §2

L1210:R71 cells = experiment: Growth inhibition of methotrexate-resistant L1210:R71 cells in suspension culture, 48 h count; assay type: cell-based, mouse; settings: Table 2; for IC50: Mus musculus, MTX-resistant, 48 hour count reduced to 50% of control, read-out: ID50 L1210:R71
Description: The compounds of Example 2 were evaluated in vitro as inhibitors as TS and cell growth and in vivo against the L1210 tumour. Since methotrexate (MTX) resistance is an important problem in cancer therapy, the compounds of the present invention were also investigated with this in mind.
as §1, with “L1210 and L1210:R71 cells were grown in continuous suspension culture in RPMI 1640 medium containing 10% horse serum (Flow Laboratories, Irvine, Scotland; UK). Cells” for “Cells”

TS = target: T2, TS (Mus musculus, UniProt P07607); experiment: Inhibition of TS purified >2,000 fold from L1210 cells by affinity chromatography; assay type: biochemical; settings: for Relative potency ([drawing 17], I50 relative to CB 3717): relative to CB 3717 control, higher = weaker; for IC50: second results table, TS purified >2,000 fold, read-out: TS I50
T2 construct: endogenous in cells
T2 sequence (P07607 whole entry): as above

L1210 cells [4] = experiment: Reversal of toxicity to L1210 cells in culture by thymidine; assay type: cell-based, mouse; settings: second results table; L1210
Description: as §1, with “L1210 and L1210:R71 cells were grown in continuous suspension culture in RPMI 1640 medium containing 10% horse serum (Flow Laboratories, Irvine, Scotland; UK). Cells” for “Cells”

[5] = L1210, Table 2, 48 hour count reduced to 50% of control, read-out: ID50 L1210
[6] = L1210, 48 h, second results table, read-out: ID50 L1210 (Tissue culture)

Structure (SMILES) | IC50 (L1210 cells [1]; [6]) [µM] | Relative potency ([drawing 17], I50 relative to CB 3717) (TS) | IC50 (TS) [µM] | further results
C=CCN(Cc1ccc2nc(N)nc(O)c2c1)c1ccc(C(=O)N[C@@H](CCC(=O)O)C(=O)O)cc1 [CB 3716, N-(4-(N-((2-amino-4-hydroxy-6-quinazolinyl)methyl)prop-2-enylamino)benzoyl)-L-glutamic acid] |  |  |  | IC50 (L1210 cells [1]; [5]): 8.8 µM; Ki [2]: 0.027 µM; IC50 [3]: 0.069 µM; IC50 (L1210:R71 cells): 100 µM; CROSS RESISTANCE (ID50 L1210:R71/ID50 L1210) (L1210:R71 cells): 11
C#CCN(Cc1ccc2nc(N)nc(O)c2c1)c1ccc(C(=O)N[C@@H](CCC(=O)OCC)C(=O)OCC)cc1 [CB 3721, diethyl N-(4-(N-((2-amino-4-hydroxy-6-quinazolinyl)methyl)prop-2-ynylamino)benzoyl)-L-glutamate] | 52 | > 62 | > 3 | 
N#CCN(Cc1ccc2nc(N)[nH]c(=O)c2c1)c1ccc(C(=O)N[C@@H](CCC(=O)O)C(=O)O)cc1 [CB 3726] | 5.4 | 15.6 | 0.094 | 
Nc1nc2ccc(CN(CC(=O)O)c3ccc(C(=O)N[C@@H](CCC(=O)O)C(=O)O)cc3)cc2c(=O)[nH]1 [CB 3728] | 27 | 100 | 1.4 | Reversal by thymidine (in culture) (L1210 cells [4]): yes
Nc1nc(O)c2cc(CN(CCCO)c3ccc(C(=O)N[C@@H](CCC(=O)O)C(=O)O)cc3)ccc2n1 [CB 3729, N-(4-(N-((2-amino-4-hydroxy-6-quinazolinyl)methyl)-3-hydroxypropylamino)-benzoyl)-L-glutamic acid] | 54 | 8.6 | 0.12 | 
Nc1nc(O)c2cc(CN(CCF)c3ccc(C(=O)N[C@@H](CCC(=O)O)C(=O)O)cc3)ccc2n1 [CB 3731, N-(4-(N-((2-amino-4-hydroxy-6-quinazolinyl)methyl)2-fluoroethylamino)benzoyl)-L-glutamic acid] | 16 | 6.8 | 0.095 | 
Nc1nc(O)c2cc(CN(CC(=O)c3ccccc3)c3ccc(C(=O)N[C@@H](CCC(=O)O)C(=O)O)cc3)ccc2n1 [CB 3733, N-(4-(N-((2-amino-4-hydroxy-6-quinazolinyl)methyl)phenacylamino)benzoyl)-L-glutamic acid] | 100 | 40 | 1.64 | 
NC(=O)CN(Cc1ccc2nc(N)[nH]c(=O)c2c1)c1ccc(C(=O)N[C@@H](CCC(=O)O)C(=O)O)cc1 [CB 3734] | 87 | > 62.5 | > 3 | Reversal by thymidine (in culture) (L1210 cells [4]): yes
Nc1nc2ccc(CN(CCBr)c3ccc(C(=O)N[C@@H](CCC(=O)O)C(=O)O)cc3)cc2c(=O)[nH]1 [CB 3735] | 52 | 23 | 1.1 | 
Nc1nc2ccc(CN(CC3CO3)c3ccc(C(=O)N[C@@H](CCC(=O)O)C(=O)O)cc3)cc2c(=O)[nH]1 (stereo partly drawn) [CB 3736] | > 300 | 7.6 | 0.31 | 
C#CCN(Cc1ccc2nc(N)[nH]c(=O)c2c1)c1ccc(C(=O)N[C@@H](CC(=O)O)C(=O)O)cc1 [CB 3737] | > 100 | 1.6 | 0.066 | 
C#CCN(Cc1ccc2nc(N)[nH]c(=O)c2c1)c1ccc(C(=O)N[C@@H](CCC(=O)O)C(=O)O)c(C)c1 [CB 3738] | 24 | 1.1 | 0.047 | 
C#CCN(Cc1ccc2nc(N)[nH]c(=O)c2c1)c1ccc(C(=O)N[C@@H](CCC(=O)O)C(=O)O)c(Cl)c1 [CB 3739] | 17 |  |  | 
Nc1nc(O)c2cc(CN(Cc3c[nH]c(=O)[nH]c3=O)c3ccc(C(=O)N[C@@H](CCC(=O)O)C(=O)O)cc3)ccc2n1 [CB 3743, N-(4-(N-(2-amino-4-hydroxy-6-quinazolinyl)methyl-N-(5-uracilyl)methyl-amino)benzoyl)-L-glutamic acid] | 4.7 | > 22 | > 1 | Reversal by thymidine (in culture) (L1210 cells [4]): yes
CCOC(=O)CC[C@H](NC(=O)c1ccc(N(CC(=O)c2ccccc2)Cc2ccc3nc(N)nc(O)c3c2)cc1)C(=O)OCC [CB 3744, diethyl N-(4-(N-((2-amino-4-hydroxy-6-quinazolinyl)methyl)phenacylamino)benzoyl)-L-glutamate] | > 100 |  |  | 
CCOC(=O)CC[C@H](NC(=O)c1ccc(N(CC(=O)OCC)Cc2ccc3nc(N)[nH]c(=O)c3c2)cc1)C(=O)OCC [CB 3745] | > 100 |  |  | 
CCOC(=O)CC[C@H](NC(=O)c1ccc(N(CCBr)Cc2ccc3nc(N)[nH]c(=O)c3c2)cc1)C(=O)OCC [CB 3746] | > 100 |  |  | 
CCOC(=O)CC[C@H](NC(=O)c1ccc(N(Cc2ccc3nc(N)[nH]c(=O)c3c2)CC(O)CBr)cc1)C(=O)OCC (stereo partly drawn) [CB 3747] | > 100 |  |  | 
C#CCN(Cc1ccc2nc(N)[nH]c(=O)c2c1)c1ccc(C(=O)N[C@@H](CC(=O)OCC)C(=O)OCC)cc1 [CB 3748] | 100 |  |  | 
C#CCN(Cc1ccc2nc(N)[nH]c(=O)c2c1)c1ccc(C(=O)N[C@@H](CCC(=O)OCC)C(=O)OCC)c(C)c1 [CB 3749] | 100 |  |  | 
C#CCN(Cc1ccc2nc(N)[nH]c(=O)c2c1)c1ccc(C(=O)N[C@@H](CCC(=O)OCC)C(=O)OCC)c(Cl)c1 [CB 3750] | 18 |  |  | 
CCCN(Cc1ccc2nc(N)[nH]c(=O)c2c1)c1ccc(C(=O)N[C@@H](CCC(=O)O)C(=O)O)cc1 [Comparison, reference compound] |  |  |  | IC50 (L1210 cells [1]; [5]): 33 µM; Ki [2]: 0.02 µM; IC50 [3]: 0.17 µM; IC50 (L1210:R71 cells): 315 µM; CROSS RESISTANCE (ID50 L1210:R71/ID50 L1210) (L1210:R71 cells): 10
